Data from EP4603105A1, “PHARMACEUTICAL COMPOSITION CONTAINING CYCLIC COMPOUND HAVING SELECTIVE KRAS INHIBITORY EFFECT AGAINST HRAS AND NRAS” (CHUGAI SEIYAKU KABUSHIKI KAISHA, priority 2022, dated 2024).
*1 amine or outer side, *2 acyl side, *3 side chain or, on linkers, in order; H or OH if unused. Where a SMILES comes first, the peptide text is derived from it. Bridges are numbered along the chain shown (N, C = ends). [ ]: non-standard residue; d: D form. The star is where a group is joined. hPhe(3-Cl-4-CF3) = N[C@@H](CCc1ccc(C(F)(F)F)c(Cl)c1)C(=O)O; NPrPhe(4-CF3) = CCCN[C@@H](Cc1ccc(C(F)(F)F)cc1)C(=O)O; X32 = Cc1ccc(C[C@@H](C(=O)[*:2])N(CC2CCCC2)[*:1])cc1; NMeGly(cPent) = CN[C@H](C(=O)O)C1CCCC1; Pro(4,4-F2) = O=C(O)[C@@H]1CC(F)(F)CN1; Hyp = O=C(O)[C@@H]1C[C@@H](O)CN1; NMeD = CN[C@@H](CC(=O)O)C(=O)O; NMeL = CN[C@@H](CC(C)C)C(=O)O; Morpholide = C1CN(*)CCO1; NMeA = CN[C@@H](C)C(=O)O; Ac5c = NC1(C(=O)O)CCCC1; Aze = O=C(O)[C@@H]1CCN1; Ethyl(2,2-F2) = FC(F)C*; Ac4c = NC1(C(=O)O)CCC1; Sar = CNCC(=O)O

Columns and labels:
[1] = test system: human lung cancer strain NCI-H441; type: cell-based
Method: A test compound was dispensed into a U-bottom 384-well plate as 40 nL serially diluted dimethyl sulfoxide solutions using a liquid handler Echo (LABCYTE). […] This cell suspension was dispensed in an amount of 40 µL per well into a plate containing the test compound, and cultured at 37°C in a 5% carbon dioxide gas incubator. Four days later, 20 µL of CellTiter-Glo (registered trademark) (Promega) was added to each well and […] was measured. […]

[2] = target: HRAS wild-type protein (Homo sapiens, UniProt P01112); assay: Binding to HRAS by surface plasmon resonance (SPR), KD and KD ratio to KRAS
Method: (§1) Surface plasmon resonance was used to analyze the binding affinity of compounds for KRAS, NRAS, and HRAS. The apparatus used was Biacore 8K, 8K+, or T200 (GE Healthcare), and the running buffer used was HBS (10 mM HEPES-NaOH, 150 mM NaCl, pH 7.4) containing 1 mM DTT, 10 mM MgCl2, 0.01% Tween 20, 10 µM GDP, and 4% DMSO.
(§2) Biotinylated Avi-tag fusion KRAS, NRAS, and HRAS proteins were expressed in E. coli BL21 (DE3) strains, and after cells were homogenized, they were purified using Streptavidin Mutein Matrix and Superdex 75. After purification, GDP-loaded KRAS, NRAS, and HRAS proteins were immobilized on the surface of Sensor Chip CAP (Cytiva) coated with Biotin CAPture Reagent in an immobilization amount of about 100 to 300 RU. Binding of each compound was evaluated by the Single Cycle Kinetics method, and a running buffer or a compound solution was added to the RAS protein non-immobilized surface and the immobilized surface to obtain a binding response. The flow rate was set to 100 µL/min, and in the compound-adding cycle, compound solutions having different concentrations were intermittently added for 75 seconds each, starting from a low concentration. […] In the blank cycle, a running buffer was intermittently added and not the compound solution. The Biotin CAPture Reagent and RAS proteins were immobilized for each cycle, and at the end of each cycle, the sensor chip was regenerated by the regeneration solution appended to the Biotin CAPture Kit (Cytiva). Measurement was carried out at 30°C.
(§3) The resulting sensorgram was subjected to curve fitting based on a 1:1 binding model on Biacore Insight Evaluation Software or T200 Evaluation Software, and thereby the dissociation constant KD of each compound with respect to KRAS, NRAS, and HRAS was determined. […] Blank indicates a compound from which the KD value with respect to NRAS or HRAS was not obtained.

[3] = target: GDP-bound NRAS wild-type protein (Homo sapiens, UniProt P01111); assay: Binding to NRAS by surface plasmon resonance (SPR), KD and KD ratio to KRAS
Method: as §1, §2, §3

[4] = ratio of KD for HRAS wild-type protein to KD for KRAS
[5] = ratio of KD for GDP-bound NRAS wild-type protein to KD for KRAS

Sequence of GDP-bound NRAS wild-type protein (P01111 whole entry): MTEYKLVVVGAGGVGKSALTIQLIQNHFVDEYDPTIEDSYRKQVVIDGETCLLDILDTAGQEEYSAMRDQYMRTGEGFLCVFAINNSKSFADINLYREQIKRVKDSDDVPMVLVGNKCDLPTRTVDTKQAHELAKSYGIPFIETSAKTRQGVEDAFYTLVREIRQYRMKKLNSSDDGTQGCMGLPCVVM
Sequence of HRAS wild-type protein (P01112 whole entry): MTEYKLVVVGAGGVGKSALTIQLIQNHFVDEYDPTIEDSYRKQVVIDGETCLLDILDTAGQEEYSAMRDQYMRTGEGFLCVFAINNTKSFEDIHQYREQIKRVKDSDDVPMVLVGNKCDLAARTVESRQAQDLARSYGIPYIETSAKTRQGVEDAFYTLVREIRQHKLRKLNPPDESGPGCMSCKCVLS

SMILES	IC50 [1] [nM]	HRAS /KRAS [2, 4]	NRAS /KRAS [3, 5]	HRAS /KRAS ([2]; ratio of KD value for HRAS wild-type protein to KD value for KRAS (SPR))	NRAS /KRAS ([3]; ratio of KD value for GDP-bound NRAS wild-type protein to KD value for KRAS (SPR))	HRAS /KRAS ([2]; ratio of KD with respect to HRAS wild-type protein to KD with respect to KRAS)	NRAS /KRAS ([3]; ratio of KD with respect to GDP-bound NRAS wild-type protein to KD with respect to KRAS)
CCCN1C(=O)CN(C)C(=O)CN(C)C(=O)[C@H]([C@@H](C)CC)NC(=O)[C@H](CC(C)C)N(C)C(=O)C[C@@H](C(=O)N2CCOCC2)N(C)C(=O)[C@H](C2CCCC2)N(C)C(=O)C2(CCCC2)NC(=O)[C@@H]2C[C@@H](OCC(F)F)CN2C(=O)[C@H](CCc2ccc(C(F)(F)F)c(Cl)c2)NC(=O)CN(C)C(=O)[C@@H]1Cc1ccc(C(F)(F)F)cc1 [PP0246] ([NMeL]I[Sar][Sar][NPrPhe(4-CF3)][Sar][hPhe(3-Cl-4-CF3)][Hyp](Ethyl(2,2-F2))[Ac5c][NMeGly(cPent)][NMeD]-Morpholide; lactam N-11)	1.8	C (A compound having a KD ratio of 0.1 or more and less than 3 is denoted as C)	B (a compound having 3 or more and less than 10 is denoted as B)	–	–	–	–
CCCN1C(=O)CN(C)C(=O)CN(C)C(=O)[C@H]([C@@H](C)CC)NC(=O)[C@H](CC(C)C)N(C)C(=O)C[C@@H](C(=O)N2CCOCC2)N(C)C(=O)[C@H](C2CCCC2)N(C)C(=O)C2(CCC2)NC(=O)[C@@H]2CC(F)(F)CN2C(=O)[C@H](CCc2ccc(C(F)(F)F)c(Cl)c2)NC(=O)CN(C)C(=O)[C@@H]1Cc1ccc(C(F)(F)F)cc1 [PP0207] ([NMeL]I[Sar][Sar][NPrPhe(4-CF3)][Sar][hPhe(3-Cl-4-CF3)][Pro(4,4-F2)][Ac4c][NMeGly(cPent)][NMeD]-Morpholide; lactam N-11)	1.9	C (A compound having a KD ratio of 0.1 or more and less than 3 is denoted as C)	B (a compound having 3 or more and less than 10 is denoted as B)	–	–	–	–
CC[C@H](C)[C@@H]1NC(=O)[C@H](CC2CC2)N(C)C(=O)C[C@@H](C(=O)N(C)C)N(C)C(=O)[C@H](C2CCCC2)N(C)C(=O)C2(CCCC2)NC(=O)[C@@H]2CC(F)(F)CN2C(=O)[C@H](CCc2cc(F)c(C(F)(F)F)c(F)c2)NC(=O)CN(C)C(=O)[C@H](Cc2ccc(C(F)(F)F)cc2)N2CC/C=C\C[C@@H](C2=O)N(C)C(=O)CN(C)C1=O [PP1513]	8.3	–	–	A (a compound having 10 or more and less than 20 is denoted as A)	A (a compound having 10 or more and less than 20 is denoted as A)	–	–
CC[C@H](C)[C@@H]1NC(=O)[C@H](CC(C)C)N(C)C(=O)C[C@@H](C(=O)N2CCOCC2)N(C)C(=O)[C@H](C2CCCC2)N(C)C(=O)C2(CCCC2)NC(=O)[C@@H]2CCCN2C(=O)[C@H](CCc2ccc(C(F)(F)F)c(Cl)c2)NC(=O)CN(C)C(=O)[C@H](Cc2ccc(C)cc2)N(CC2CCCC2)C(=O)[C@@H]2CCN2C(=O)[C@H](C)N(C)C1=O [PP0084] ([NMeL]I[NMeA][Aze][X32][Sar][hPhe(3-Cl-4-CF3)]P[Ac5c][NMeGly(cPent)][NMeD]-Morpholide; lactam N-11)	50	B (a compound having 3 or more and less than 10 is denoted as B)	C (A compound having a KD ratio of 0.1 or more and less than 3 is denoted as C)	–	–	–	–
CCO[C@@H]1C[C@H]2C(=O)NC3(CC(C)(C)C3)C(=O)N(C)[C@@H](C(CC)CC)C(=O)N(C)[C@H](C(=O)N3CCCC3)CC(=O)N(C)[C@H]3CCC/C=C/c4ccc(cc4)C[C@@H](C(=O)N(C)CC(=O)N[C@@H](CCc4cc(F)c(C(F)(F)F)c(F)c4)C(=O)N2C1)N1CC/C=C\C[C@@H](C1=O)N(C)C(=O)CN(C)C(=O)[C@H]([C@@H](C)CC)NC3=O [PP2576]	5.7	A (a compound having 10 or more and less than 20 is denoted as A)	A (a compound having 10 or more and less than 20 is denoted as A)	–	–	–	–
CCO[C@@H]1C[C@H]2C(=O)NC3(CCC3)C(=O)N(C)[C@@H](C3CCCC3)C(=O)N(C)[C@H](C(=O)N3C[C@@H](C)O[C@@H](C)C3)CC(=O)N(C)[C@@H](CC(C)C)C(=O)N[C@@H]([C@@H](C)CC)C(=O)N(C)CC(=O)N(C)[C@H]3CCCCCN(C3=O)[C@@H](Cc3ccc(F)cc3)C(=O)N(C)CC(=O)N[C@@H](CCc3ccc(C(F)(F)F)c(Cl)c3)C(=O)N2C1 [PP1153]	15.5	–	–	–	–	B (a compound having 3 or more and less than 10 is denoted as B)	B (a compound having 3 or more and less than 10 is denoted as B)
CCC[C@H]1C(=O)N[C@@H]([C@@H](C)CC)C(=O)N(C)CC(=O)N(C)[C@H]2C/C=C\CCN(C2=O)[C@@H](Cc2ccc(C(F)(F)F)cc2)C(=O)N(C)CC(=O)N[C@@H](CCc2ccc(C(F)(F)F)c(OC)c2)C(=O)N2C[C@H](OCC)C[C@H]2C(=O)N(C)C2(CCC2)C(=O)N(C)[C@@H](C2CCCC2)C(=O)N(C)[C@H](C(=O)N2CCCCC2)CC(=O)N1C [PP3103]	21.5	A (a compound having 10 or more and less than 20 is denoted as A)	–	–	–	–	–
